Assay results: ChEMBL document CHEMBL3286240, “Inhibition of Enterococcus faecalis biofilm formation by highly active lactones and lactams analogues of rubrolides” (Eur J Med Chem, 2014)
In brackets after ≈: the same amount, converted by molar mass.

System: Enterococcus faecalis
Experiment: Antimicrobial activity against Enterococcus faecalis assessed as bacterial growth at 10.9 ug/ml after 20 hrs by microtiter plate assay
Type: functional

SMILES | Activity
COc1ccc(C)cc1C1=C(Br)C(=O)N(CC(C)C)/C1=C\c1cccc(Cl)c1 | 34.4%
COc1ccc(C)cc1C1=C(Br)C(=O)N(CC(C)C)/C1=C\c1ccccc1Cl | 45.1%
COc1ccc(Cl)cc1C1=C(Br)C(=O)N(CC(C)C)/C1=C\c1ccccc1Br | 53.3%
COc1cccc(/C=C2/C(c3cc(Cl)ccc3OC)=C(Br)C(=O)N2CC(C)C)c1 | 39.3%
COc1ccccc1C1=C(Br)C(=O)N(CC(C)C)/C1=C/c1ccc(C(F)(F)F)cc1 | 11.1%
COc1ccc(Br)cc1C1=C(Br)C(=O)N(CC(C)C)/C1=C/c1cccc(Cl)c1 | 57.3%

System: Enterococcus faecalis
Experiment: Antimicrobial activity against Enterococcus faecalis assessed as bacterial growth at 2.73 ug/ml after 20 hrs by microtiter plate assay
Type: functional

SMILES | Activity
COc1ccc(C)cc1C1=C(Br)C(=O)N(CC(C)C)/C1=C\c1cccc(Cl)c1 | 14.5%
COc1ccc(C)cc1C1=C(Br)C(=O)N(CC(C)C)/C1=C\c1ccccc1Cl | 33%
COc1ccc(Cl)cc1C1=C(Br)C(=O)N(CC(C)C)/C1=C\c1ccccc1Br | 44.9%
COc1cccc(/C=C2/C(c3cc(Cl)ccc3OC)=C(Br)C(=O)N2CC(C)C)c1 | 29.1%
COc1ccccc1C1=C(Br)C(=O)N(CC(C)C)/C1=C/c1ccc(C(F)(F)F)cc1 | 10.9%
COc1ccc(Br)cc1C1=C(Br)C(=O)N(CC(C)C)/C1=C/c1cccc(Cl)c1 | 42.5%

System: Enterococcus faecalis
Experiment: Antimicrobial activity against Enterococcus faecalis assessed as bacterial growth at 0.17 ug/ml after 20 hrs by microtiter plate assay
Type: functional

SMILES | Activity
COc1ccc(C)cc1C1=C(Br)C(=O)N(CC(C)C)/C1=C\c1cccc(Cl)c1 | 6%
COc1ccc(C)cc1C1=C(Br)C(=O)N(CC(C)C)/C1=C\c1ccccc1Cl | -4.2%
COc1ccc(Cl)cc1C1=C(Br)C(=O)N(CC(C)C)/C1=C\c1ccccc1Br | -4.1%
COc1cccc(/C=C2/C(c3cc(Cl)ccc3OC)=C(Br)C(=O)N2CC(C)C)c1 | 0.2%
COc1ccccc1C1=C(Br)C(=O)N(CC(C)C)/C1=C/c1ccc(C(F)(F)F)cc1 | 3.3%
COc1ccc(Br)cc1C1=C(Br)C(=O)N(CC(C)C)/C1=C/c1cccc(Cl)c1 | 16.1%

System: Enterococcus faecalis
Experiment: Antimicrobial activity against Enterococcus faecalis assessed as bacterial growth at 43.8 ug/ml after 20 hrs by microtiter plate assay
Type: functional

SMILES | Activity
COc1ccc(C)cc1C1=C(Br)C(=O)N(CC(C)C)/C1=C\c1cccc(Cl)c1 | 61.8%
COc1ccc(C)cc1C1=C(Br)C(=O)N(CC(C)C)/C1=C\c1ccccc1Cl | 62.1%
COc1ccc(Cl)cc1C1=C(Br)C(=O)N(CC(C)C)/C1=C\c1ccccc1Br | 70%
COc1cccc(/C=C2/C(c3cc(Cl)ccc3OC)=C(Br)C(=O)N2CC(C)C)c1 | 55.6%
COc1ccccc1C1=C(Br)C(=O)N(CC(C)C)/C1=C/c1ccc(C(F)(F)F)cc1 | 17.5%
COc1ccc(Br)cc1C1=C(Br)C(=O)N(CC(C)C)/C1=C/c1cccc(Cl)c1 | 75.5%

System: Enterococcus faecalis
Experiment: Antimicrobial activity against Enterococcus faecalis assessed as bacterial growth at 1.37 ug/ml after 20 hrs by microtiter plate assay
Type: functional

SMILES | Activity
COc1ccc(C)cc1C1=C(Br)C(=O)N(CC(C)C)/C1=C\c1cccc(Cl)c1 | 11.9%
COc1ccc(C)cc1C1=C(Br)C(=O)N(CC(C)C)/C1=C\c1ccccc1Cl | 24.6%
COc1ccc(Cl)cc1C1=C(Br)C(=O)N(CC(C)C)/C1=C\c1ccccc1Br | 45.1%
COc1cccc(/C=C2/C(c3cc(Cl)ccc3OC)=C(Br)C(=O)N2CC(C)C)c1 | 21%
COc1ccccc1C1=C(Br)C(=O)N(CC(C)C)/C1=C/c1ccc(C(F)(F)F)cc1 | 1.6%
COc1ccc(Br)cc1C1=C(Br)C(=O)N(CC(C)C)/C1=C/c1cccc(Cl)c1 | 33%

System: Enterococcus faecalis
Experiment: Antimicrobial activity against Enterococcus faecalis assessed as bacterial growth at 87.5 ug/ml after 20 hrs by microtiter plate assay
Type: functional

SMILES | Activity
COc1ccc(C)cc1C1=C(Br)C(=O)N(CC(C)C)/C1=C\c1cccc(Cl)c1 | 64.5%
COc1ccc(C)cc1C1=C(Br)C(=O)N(CC(C)C)/C1=C\c1ccccc1Cl | 95.3%
COc1ccc(Cl)cc1C1=C(Br)C(=O)N(CC(C)C)/C1=C\c1ccccc1Br | 100.8%
COc1cccc(/C=C2/C(c3cc(Cl)ccc3OC)=C(Br)C(=O)N2CC(C)C)c1 | 94.6%
COc1ccccc1C1=C(Br)C(=O)N(CC(C)C)/C1=C/c1ccc(C(F)(F)F)cc1 | -18.9%
COc1ccc(Br)cc1C1=C(Br)C(=O)N(CC(C)C)/C1=C/c1cccc(Cl)c1 | 98.2%

System: Enterococcus faecalis
Experiment: Antimicrobial activity against Enterococcus faecalis assessed as inhibition of biofilm formation after 20 hrs by crystal violet staining analysis
Type: functional, organism-based

SMILES | IC50
COc1ccc(C)cc1C1=C(Br)C(=O)N(CC(C)C)/C1=C\c1cccc(Cl)c1 | 62.6 µg/mL (≈ 136 µM)
COc1ccc(C)cc1C1=C(Br)C(=O)N(CC(C)C)/C1=C\c1ccccc1Cl | 1.09 µg/mL (≈ 2.37 µM)
COc1ccc(Cl)cc1C1=C(Br)C(=O)N(CC(C)C)/C1=C\c1ccccc1Br | 1.48 µg/mL (≈ 2.82 µM)
COc1cccc(/C=C2/C(c3cc(Cl)ccc3OC)=C(Br)C(=O)N2CC(C)C)c1 | 1.46 µg/mL (≈ 3.06 µM)
COc1ccccc1C1=C(Br)C(=O)N(CC(C)C)/C1=C/c1ccc(C(F)(F)F)cc1 | 2.96 µg/mL (≈ 6.16 µM)
COc1ccc(Br)cc1C1=C(Br)C(=O)N(CC(C)C)/C1=C/c1cccc(Cl)c1 | 3.46 µg/mL (≈ 6.58 µM)

System: Enterococcus faecalis
Experiment: Antimicrobial activity against Enterococcus faecalis assessed as bacterial growth at 21.9 ug/ml after 20 hrs by microtiter plate assay
Type: functional

SMILES | Activity
COc1ccc(C)cc1C1=C(Br)C(=O)N(CC(C)C)/C1=C\c1cccc(Cl)c1 | 46.8%
COc1ccc(C)cc1C1=C(Br)C(=O)N(CC(C)C)/C1=C\c1ccccc1Cl | 52.2%
COc1ccc(Cl)cc1C1=C(Br)C(=O)N(CC(C)C)/C1=C\c1ccccc1Br | 61.5%
COc1cccc(/C=C2/C(c3cc(Cl)ccc3OC)=C(Br)C(=O)N2CC(C)C)c1 | 45.7%
COc1ccccc1C1=C(Br)C(=O)N(CC(C)C)/C1=C/c1ccc(C(F)(F)F)cc1 | 15.8%
COc1ccc(Br)cc1C1=C(Br)C(=O)N(CC(C)C)/C1=C/c1cccc(Cl)c1 | 67.3%

System: Enterococcus faecalis
Experiment: Antimicrobial activity against Enterococcus faecalis assessed as bacterial growth at 0.34 ug/ml after 20 hrs by microtiter plate assay
Type: functional

SMILES | Activity
COc1ccc(C)cc1C1=C(Br)C(=O)N(CC(C)C)/C1=C\c1cccc(Cl)c1 | 6.9%
COc1ccc(C)cc1C1=C(Br)C(=O)N(CC(C)C)/C1=C\c1ccccc1Cl | -7.4%
COc1ccc(Cl)cc1C1=C(Br)C(=O)N(CC(C)C)/C1=C\c1ccccc1Br | 0%
COc1cccc(/C=C2/C(c3cc(Cl)ccc3OC)=C(Br)C(=O)N2CC(C)C)c1 | 2.5%
COc1ccccc1C1=C(Br)C(=O)N(CC(C)C)/C1=C/c1ccc(C(F)(F)F)cc1 | 0.4%
COc1ccc(Br)cc1C1=C(Br)C(=O)N(CC(C)C)/C1=C/c1cccc(Cl)c1 | 20.1%

System: Enterococcus faecalis
Experiment: Antimicrobial activity against Enterococcus faecalis assessed as bacterial growth at 5.5 ug/ml after 20 hrs by microtiter plate assay
Type: functional

SMILES | Activity
COc1ccc(C)cc1C1=C(Br)C(=O)N(CC(C)C)/C1=C\c1cccc(Cl)c1 | 31.1%
COc1ccc(C)cc1C1=C(Br)C(=O)N(CC(C)C)/C1=C\c1ccccc1Cl | 41.9%
COc1ccc(Cl)cc1C1=C(Br)C(=O)N(CC(C)C)/C1=C\c1ccccc1Br | 35.1%
COc1cccc(/C=C2/C(c3cc(Cl)ccc3OC)=C(Br)C(=O)N2CC(C)C)c1 | 42.5%
COc1ccccc1C1=C(Br)C(=O)N(CC(C)C)/C1=C/c1ccc(C(F)(F)F)cc1 | 9.2%
COc1ccc(Br)cc1C1=C(Br)C(=O)N(CC(C)C)/C1=C/c1cccc(Cl)c1 | 48.8%

System: Enterococcus faecalis
Experiment: Antimicrobial activity against Enterococcus faecalis assessed as bacterial growth at 0.68 ug/ml after 20 hrs by microtiter plate assay
Type: functional

SMILES | Activity
COc1ccc(C)cc1C1=C(Br)C(=O)N(CC(C)C)/C1=C\c1cccc(Cl)c1 | 11.6%
COc1ccc(C)cc1C1=C(Br)C(=O)N(CC(C)C)/C1=C\c1ccccc1Cl | 6.9%
COc1ccc(Cl)cc1C1=C(Br)C(=O)N(CC(C)C)/C1=C\c1ccccc1Br | 19.2%
COc1cccc(/C=C2/C(c3cc(Cl)ccc3OC)=C(Br)C(=O)N2CC(C)C)c1 | 5.9%
COc1ccccc1C1=C(Br)C(=O)N(CC(C)C)/C1=C/c1ccc(C(F)(F)F)cc1 | 2.3%
COc1ccc(Br)cc1C1=C(Br)C(=O)N(CC(C)C)/C1=C/c1cccc(Cl)c1 | 23.5%
